Data set [1] deals with VEGFR2. Description: VEGFR2 expression in HUVEC co-cultured with miR over-expressing ovarian cancer cells. It is filed as cell-based. Particulars: HUVEC co-cultured 24 hours with miR over-expressing cells vs control.
Data set [2] concerns MDAH-2774 cells. Description: In vitro sensitivity to CBDCA and Tax of miR-overexpressing cells (MTS assay). The data set is classed as cell-based. Particulars: overexpression of the miR in MDAH-2274 cells; MTS assay 4 days later. On the procedure:
(§1) After drugs removal, cells were washed in PBS and incubated in the presence of serum for additionally 4 days. Cells viability was assessed using MTS assay (SIGMA) following manufacturer instructions. The reported IC50 values represent the mean of at least 3 independent experiments. For the evaluation of miR-484 effects on in vitro drug sensitivity parental, scramble and miR-484 expressing cells were plated in 96 wells plates (1000 cells/well) and treated with the indicated doses of CBDCA and TAX. Viability was evaluated after 4 days as described above.

In data set [3] the test system is SKOV-3 cells. The data set is described as above. It is filed as cell-based. The following applies: overexpression of the miR in SK-OV3 cells; MTS assay 4 days later. The method, then: as §1
Data set [4] deals with HUVEC cells. Description: Co-culture of HUVEC with miR over-expressing ovarian cancer cells: miR transfer. It is filed as cell-based. The method, then: (§2) Total RNA was isolated with Trizol (Invitrogen) from cells and with High Pure miRNA Isolation Kit (Roche) in accordance with manufacturer's instructions for liquid samples. Mature miRs were assessed by the single-tube TaqMan MicroRNA Assay. miR expression was normalized in cells to RNU44 and RNU48. All retrotranscriptase (RT) reactions, including no-template controls and RT minus controls, were run in a GeneAmp PCR 9600 Thermocycler (Applied Biosystems).
(§3) Each sample was tested in triplicate unless otherwise specified. MicroRNAs from medium samples were isolated. After DNase treatment (Ambion), RNA concentrations were determined with a NanoDrop (Thermo Scientific). In serum samples were normalized to U6snRNA (Applied Biosystems), as indicated. Since U6 is inconsistent, the expression levels of target miRNAs were directly normalized to total RNA (the inventors tested before the absence of miR-296-5p and miR-484 in not conditioned medium).

In data set [5] the test system is ovarian cancer derived cell lines. Description: miR expression in stably transfected ovarian cancer cell lines and their conditioned medium (real time PCR). It is filed as cell-based. The following applies: for miR in the CM of stably transfected cells: conditioned medium; for increase of miR expression over controls after stable transfection: miR-EGFP stable transfection in ovarian cancer cells. On the procedure: as §2, §3
Lentiviruses expressing miR-484 were produced in 293FT cell lines (Invitrogen), by calcium phosphate transfection. To this purpose, the System Biosciences (SBI, USA) miR Precursor Constructs were used, containing dual expression of the specific miR and the copGFP fluorescent marker, for simple identification and monitoring of cells positive for transfection and transduction. Conditioned media containing viruses was harvested 72 hours after transfection, and used to transduce epithelial ovarian cancer cell lines (EOC). In particular, SKOV-3 and MDAH-2774 were transduced with viruses expressing either GFP alone (called hereafter empty vector) or GFP and precursor of miR-484, and then monitored for their fluorescence expression.

Another data set relates to HGS. Description: Luciferase miRNA target reporter assay and western blot. It is filed as cell-based, human. Particulars: luciferase and western blot analyses. On the procedure: (§4) For overexpression of miR-296 and miR-484, 100 nM of pre-miR-296, pre-miR-484 and pre-negative control-2 (Ambion) was transfected into HEK293 and HUVE cells using Lipofectamine 2000 (Invitrogen). After 24 hr, cells were harvested and lysed in RIPA buffer containing protease inhibitor cocktail (Roche Diagnostic). Protein concentrations of total cell lysates were measured using a Bradford Protein Assay Dye Reagent Concentrate (Bio-Rad), and 35 μg of cell lysates was resolved on SDS-PAGE gels (Bio-Rad) and transferred to nitrocellulose followed by visualization with ECL detection reagents (Denville Scientific). The following primary antibodies were used: mouse monoclonal anti-Hgs (1:1000, Enzo Life Science), rabbit polyclonal anti-VEGF Receptor 2 (1:1000, Cell Signaling Technology), mouse monoclonal anti-VEGF-B (1:200, Santa Cruz Biotechnology), mouse monoclonal anti-a-Tubulin (1:2000, Sigma).
(§5) The 3′ UTR of the human HGS, and VEGFB genes were PCR amplified using the following primers:
(§6) and inserted into pGL3 control vector (Promega) by using Xba1 site immediately downstream from the stop codon of firefly luciferase, giving rise to the p3′UTR-HGS, and p3′UTR-VEGFB plasmids. These constructs were used to generate the p3′-UTRmut-HGS primers: […]

Data set [6] deals with HUVEC cells. Description: Tube formation assay on HUVEC cells with conditioned media from miR-484 expressing ovarian carcinoma cells. The data set is classed as cell-based. The following applies: CM from MDAH-2774 or SK-OV3 overexpressing miR-484. The method, then: Wells from a 48-well plate were filled with […] of matrigel (BD, non growth factor reduced 8-10 ug/ul) and let solidify at 37° C. for 1 hour. HUVEC cells (ATCC, 1×10^5) resuspended in […] of medium were then layered onto the matrigel layer and monitored over the time for the formation of tube-like structures. Time-lapse video microscopy (Leica) was used to create a movie of this process, collecting images every 5 minutes for up to 20 hours. Media used to resuspend endothelial cells were 1—complete medium for endothelial cells, used as positive control, 2—Serum reduced medium (2%), used as negative control, 3—conditioned medium (plus 2% serum) from […] or MDAH-2774 transduced with scrambled-miR or miR-484.

The subject of data set [7] is MDAH-2774 cells. Description: Intratumoral delivery of lentivirus expressing miR-484 with CBDCA+Tax treatment. The following applies: CBDCA+Tax biweekly for 3 weeks, tumor growth after 21 days. It is filed as in vivo, nude mice. On the procedure: (§7) Two approaches were used to evaluate the effects of miR-484 expression on in vivo chemosensitivity: 1) MDAH-2774 cells scrambled-miR (right flank) or miR-484 (left flank) and SKOV-3 scrambled-miR (right flank) or miR-484 (left flank) were injected and treated with intraperitoneal administration of Carboplatin (15 mg/kg) plus Taxol (5 mg/kg) twice a week, for 3 weeks. Tumor growth was follow by caliper measurement and/or by GFP visualization using the Ivis Lumina, Caliper Lifesciences. 2) Direct intratumoral delivery of lentiviruses expressing scrambled-miR (right flank) or miR484 (left flank) associated with carboplatin (15 mg/kg) plus taxol (5 mg/kg) intraperitoneal treatment.

The subject of data set [8] is MDAH-2774 cells. Description: In vivo growth and susceptibility to Carboplatin+Taxol of xenografts expressing miR-484 (caliper). The arrangement: species or system nude mice. On the procedure: as §7
Athymic female nude mice (8/group) were subcutaneously injected on both dorsal flanks with 100 ul of PBS containing 1.5×10^6 MDAH-2774 cells scrambled-miR (right flank) or miR-484 (left flank).
(§8) Same was carried out with SKOV-3, except that 2.2×10^6 cells have been injected. When tumor masses became visible treatment with CBDCA (15 mg/kg) and Tax (5 mg/kg) was started. Drugs were delivered diluted in 200 ul of PBS and intraperitoneally injected twice a week, for 4 weeks. Tumor masses were measured with a caliper twice a week, for 4 weeks. Moreover, exploiting the expression of GFP fluorescent marker by the ovarian cancer cells utilized, mice have been anesthetized and tumor masses imaged by the Ivis Lumina, Caliper Lifesciences, once a week, for 4 weeks. Mice were then sacrificed and tumor masses excised and included in OCT for further analyses.

For data set [9], the system named is VEGFB. Description: Western blot for VEGFB in cell lines stably transduced with miR-484. It is filed as cell-based. The following applies: MDAH-2774 or SKOV-3 stably transduced with miR-484 vs scr-vector; western blot (data not shown).
Data set [10] concerns VEGFB. Description: Luciferase miRNA target reporter assay and western blot. It is filed as cell-based, human. Particulars: luciferase and western blot analyses. The method, then:
as §4, §5, §6

The test system of data set [11] is VEGFR2. Description: Luciferase and western blot after miR transfection in HUVEC cells. It is filed as cell-based. The following applies: luciferase and western blot analyses. On the procedure:
as §4

Another data set deals with SK-OV3 xenograft tumors. Put plainly: Vascular density (CD34, Chalkley eyepiece method) in xenograft tumors. The data set is classed as in vivo, mice. Particulars: SK-OV3 xenografts transduced with miR-484; 7 tumors. On the procedure: (§9) Tumor sections (2 μm thick) were cut and for formalin fixed paraffin embedded sample deparaffinization was achieved trough graded alcohols. Primary antibody against CD34 was applied following manufacturer's instruction. Vascular density (CD34+) was assessed using the Chalkley eyepiece method. Whole tumor sections were scanned at low magnification under a conference microscope by two observers. Three areas with the highest vascular density (vascular hot-spots) were identified. At high magnification (×400) a 25-point Chalkley-Eyepiece graticule was applied to each hot-spot and oriented to permit the maximum number of points to hit on or within blood vessels. The mean value of the three counts represents the vascular density of the tumor.

The test system of data set [12] is MDAH-2774 xenograft tumors. The description is as above. It is filed as in vivo, mice. The following applies: MDAH-2774 xenografts transduced with miR-484; 7 tumors. The method, then:
as §9

Data set [13] has as its system SKOV-3 cells. Description: In vivo growth and susceptibility to Carboplatin+Taxol of xenografts expressing miR-484 (EGFP imaging). The following applies: SK-OV3 cells expressing miR-484, EGFP fluorescence imaging. The arrangement: species or system nude mice. On the procedure: as §7, §8
The mark [14] stands for this setting: CBDCA and Tax treatment, 7 mice, miR-484 expressing tumors.

Several values for one entry are separate records, joined by “and”; a condition that tells them apart may be missing. Identical values can stand only once. Entries after “also recorded” stand apart in the source; their conditions may differ.

In the case of “miR-296: microRNA miR-296 (SEQ ID NO: 9), over-expressed via pre-miR-296 transfection or stable miR-296-EGFP transfection (AGGGCCCCCCCUCAAUCCUGU; listed as RNA, chemistry not given here; listed as Homo sapiens)”, the “expression of VEGFR2 on endothelial cells” value in the data set on VEGFR2 [1] is recorded as “significantly increase”. Moreover, the “in vitro sensitivity to CBDCA and Tax” value in the data set with MDAH-2774 cells [2] was “did not significantly affect”. For the same substance, the “in vitro sensitivity to CBDCA and Tax” value in the data set with SKOV-3 cells [3] is “did not significantly affect”. Also, the “time within which secreted miR enters HUVEC cells” value in the data set on HUVEC cells [4] was at most 24 h. Further, in data set [5], the “miR in the CM of stably transfected cells” value is “found” and the “increase of miR expression over controls after stable transfection” value is reported as at least 2 fold. For the same substance, the “endogenous levels of HGS” value in the data set on HGS is reported as “modulated”.
With “miR-484: microRNA hsa-miR-484 (SEQ ID NO: 11), over-expressed via lentiviral miR precursor construct or pre-miR-484 transfection (UCAGGCUCAGUCCCCUCCCGAU; listed as RNA, chemistry not fully specified; listed as Homo sapiens)”, the “formation of tube like structures by HUVEC” value is “impaired” in the data set on HUVEC cells [6] (6 hours on 3D matrigel); “abolished; also recorded: reduces the ability of HUVEC to properly form and maintain tube-like structures” with HUVEC cells [6] (20 hrs). Moreover, in the data set with MDAH-2774 cells [7], the “cases in which drug sensitivity increased” value is 6/6. Besides, the “expression of VEGFR2 on endothelial cells” value in the data set with VEGFR2 [1] is “significantly decrease”. For the same substance, in the data set on MDAH-2774 cells [8] (15 days after subcutaneous inoculation, before treatment), the “mice in which tumor volume formed by miR-expressing cells was larger than control EGFP-expressing cells” value was 6/8. Besides, the “increase of tumor size with respect to day 0 at the end of the treatment” value in the data set on MDAH-2774 cells [8] (setting [14]) is 1.3 fold. For the same substance, the “range of tumor size increase with respect to day 0” value in the data set on MDAH-2774 cells [8] (setting [14]) is listed as 0.8-1.8 fold. Also, in the data set on VEGFB [9], the VEGFB expression result is on record as “down-regulated”. Further, the “in vitro sensitivity to CBDCA and Tax” value in the data set with MDAH-2774 cells [2] and in the data set with SKOV-3 cells [3] was “did not significantly affect” throughout. The “time within which secreted miR enters HUVEC cells” value with HUVEC cells [4] was at most 24 h. Besides, in data set [5], the “miR in the CM of stably transfected cells” value is “increased”. The “increase of miR expression over controls after stable transfection” value in data set [5] was at least 2 fold. Also, the “endogenous levels of VEGFB” value in the data set with VEGFB [10] is given as “modulated”. Further, in the data set with VEGFR2 [11], the “endogenous levels of VEGFR2” value is reported as “modulated”. Also, the mean microvessel density with SK-OV3 xenograft tumors was 9±5.5 and 9; in data set [12], 10±6.2 and 10. In addition, the entries for the “range of microvessel density” value (in the data set on SK-OV3 xenograft tumors; in data set [12]) were 1-18 and 4-22, respectively. Moreover, the sensitivity to treatment entry with SKOV-3 cells [13] (CBDCA+Tax) is “significantly increased”. In addition, in the data set on SKOV-3 cells [13], the “growth of the primary tumor” value is on record as “did not affect”.

The values above are taken from US9249468B2, “Methods and materials related to ovarian cancer” (The Ohio State University, priority 2011, dated 2016).
